Measurements from patent US7138414B2, “Heterocyclically substituted benzoylureas, process for their preparation and their use as pharmaceuticals” (Sanofi-Aventis Deutschland GmbH, priority 2002, dated 2006).

How the values were obtained:
[1] = biological target: T1, human glycogen phosphorylase a (Homo sapiens, UniProt P06737); test: Glycogen phosphorylase a activity test (reverse direction, release of inorganic phosphate); assay type: biochemical; conditions: 10 μM test substance, duplicate determinations, 40 min at room temperature
T1 sequence (P06737 2-847 limits assumed): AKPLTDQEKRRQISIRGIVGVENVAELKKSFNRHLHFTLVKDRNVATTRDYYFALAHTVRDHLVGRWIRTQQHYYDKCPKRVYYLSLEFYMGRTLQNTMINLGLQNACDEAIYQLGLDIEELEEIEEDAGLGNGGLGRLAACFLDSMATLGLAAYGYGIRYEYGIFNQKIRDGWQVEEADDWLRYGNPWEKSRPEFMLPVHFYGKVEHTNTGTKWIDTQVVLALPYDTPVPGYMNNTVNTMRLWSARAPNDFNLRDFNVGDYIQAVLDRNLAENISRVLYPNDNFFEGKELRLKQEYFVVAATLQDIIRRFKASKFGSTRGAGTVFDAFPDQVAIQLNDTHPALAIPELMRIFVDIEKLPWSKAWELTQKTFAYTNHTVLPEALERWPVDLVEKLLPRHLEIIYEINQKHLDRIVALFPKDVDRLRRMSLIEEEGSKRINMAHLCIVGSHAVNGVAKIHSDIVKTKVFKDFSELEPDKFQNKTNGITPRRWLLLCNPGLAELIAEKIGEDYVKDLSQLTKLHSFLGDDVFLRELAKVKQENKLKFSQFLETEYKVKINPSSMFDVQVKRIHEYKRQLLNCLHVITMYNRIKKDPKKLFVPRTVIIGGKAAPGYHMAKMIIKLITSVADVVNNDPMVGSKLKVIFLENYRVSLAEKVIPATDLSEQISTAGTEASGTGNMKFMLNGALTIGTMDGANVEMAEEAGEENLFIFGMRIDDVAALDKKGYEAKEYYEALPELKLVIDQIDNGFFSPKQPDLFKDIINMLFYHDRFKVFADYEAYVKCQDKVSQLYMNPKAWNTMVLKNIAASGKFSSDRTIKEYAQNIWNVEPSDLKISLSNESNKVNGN
Description: Glycogen Phophorylase a Activity Test
All reactions were carried out as duplicate determinations in 96-well microtiter plates (half area plates, Costar No. 3696), and the change in absorption as a consequence of the formation of the reaction product was measured at the wavelength specified below in a Multiskan Ascent Elisa Reader (Lab Systems, Finland).
In order to measure the GPa enzyme activity in the reverse direction, the conversion of glucose 1-phosphate to glycogen and inorganic phosphate was measured by the general method of Engers et al. (Engers H D, Shechosky S, Madsen N B, Can J Biochem 1970 July;48(7):746–754) with the following modifications: human glycogen phosphorylase a (for example containing 0.76 mg of protein/ml (Aventis Pharma Deutschland GmbH), dissolved in buffer solution E (25 mM β-glycerophosphate, pH 7.0, 1 mM EDTA and 1 mM dithiothreitol) was diluted to a concentration of 10 μg of protein/ml with buffer T (50 mM Hepes, pH 7.0, 100 mM KCl, 2.5 mM EDTA, 2.5 mM MgCl26H2O) and addition of 5 mg/ml of glycogen. Test substances were prepared as a 10 mM solution in DMSO and diluted to 50 μM with buffer solution T. To 10 μl of this solution were added 10 μl of 37.5 mM glucose dissolved in buffer solution T and 5 mg/ml of glycogen, and also 10 μl of a solution of human glycogen phosphorylase a (10 μg of protein/ml) and 20 μl of 2.5 mM glucose 1-phosphate. The base value of the activity of glycogen phosphorylase a in the absence of test substance was determined by adding 10 μl of buffer solution T (0.1% DMSO). The mixture was incubated at room temperature for 40 minutes and the released inorganic phosphate was determined by means of the general method of Drueckes et al. (al (Drueckes P, Schinzel R, Palm D, Anal Biochem 1995 Sep. 1;230(1):173–177) with the following modifications: 50 μl of a stop solution of 7.3 mM of ammonium molybdate, 10.9 mM of zinc acetate, 3.6% of ascorbic acid, 0.9% of SDS are added to 50 μl of the enzyme mixture. After 60 minutes of incubation at 45° C., the absorption was measured at 820 nm. To determine the background absorption, the stop solution was added immediately after the addition of the glucose 1-phosphate solution in a separate reaction. This test was carried out at a concentration of 10 μM of the test substance, in order to determine the respective inhibition of glycogen phosphorylase a by the test substance in vitro.

[2] = biological target: T1, human glycogen phosphorylase a; test: as above; assay type: biochemical; conditions: 10 μM test substance; duplicate determinations; 40 min at room temperature

## O=C(NC(=O)c1cc(F)c(F)cc1Cl)Nc1cc(F)ccc1N1CCC(C(=O)[O-])CC1.[Na+]
other
  melting point: 160.9 °C

## O=C(NC(=O)c1cc(F)c(F)cc1Cl)Nc1ccc(-c2n[nH]c(O)n2)cc1OC(F)(F)F [Example 6f, 1-(2-chloro-4,5-difluorobenzoyl)-3-[2-trifluoromethoxy-4-(5-hydroxy-1H-[1,2,4]triazol-3-yl)phenyl]urea]
[1]
  % inhibition at 10 μM: 98%
other
  melting point: > 350 °C

## O=C(NC(=O)c1ccc(F)cc1Cl)Nc1ccccc1-c1nnc(O)o1 [Example 8d, 1-(2-chloro-4-fluorobenzoyl)-3-[2-(5-hydroxy-[1,3,4]oxadiazol-2-yl)phenyl]urea]
[1]
  % inhibition at 10 μM: 100%
other
  melting point: 229.7 °C

## COc1cc(-c2nnc(O)o2)ccc1NC(=O)NC(=O)c1cc(F)c(F)cc1Cl [Example 8e, 1-(2-chloro-4,5-difluorobenzoyl)-3-[4-(5-hydroxy-[1,3,4]oxadiazol-2-yl)-2-methoxyphenyl]urea]
[1]
  % inhibition at 10 μM: 97%
other
  melting point: 293.1 °C

## O=C(NC(=O)c1cc(F)c(F)cc1Cl)Nc1ccccc1-c1nnc(O)o1 [Example 8f, 1-(2-chloro-4,5-difluorobenzoyl)-3-[2-(5-hydroxy-[1,3,4]oxadiazol-2-yl)phenyl]urea]
[1]
  % inhibition at 10 μM: 99%
other
  melting point: 222.9 °C

## O=C(NC(=O)c1ccc(F)cc1Cl)Nc1ccccc1-c1nnco1 [Example 8g, 1-(2-chloro-4-fluorobenzoyl)-3-(2-[1,3,4]oxadiazol-2-ylphenyl)urea]
[1]
  % inhibition at 10 μM: 98%
other
  melting point: 204 °C

## O=C(NC(=O)c1cc(F)c(F)cc1Cl)Nc1ccccc1-c1nnco1 [Example 8h, 1-(2-chloro-4,5-difluorobenzoyl)-3-(2-[1,3,4]oxadiazol-2-ylphenyl)urea]
[1]
  % inhibition at 10 μM: 100%
other
  melting point: 199.6 °C

## CNc1nn(-c2ccc(NC(=O)NC(=O)c3ccc(F)cc3Cl)c(C)c2)c(=O)o1 [Example 9f, 1-(2-chloro-4-fluorobenzoyl)-3-(2-methyl-4-(5-methylamino-2-oxo-3H-[1,3,4]-oxadiazol-3-yl)phenyl)urea]
[1]
  % inhibition at 10 μM: 54%
other
  melting point: 198 °C

## O=C(NC(=O)c1ccc(F)cc1Cl)Nc1ccc(-c2noc(=O)[nH]2)cc1OC(F)(F)F [Example 11e, 1-(2-chloro-4-fluorobenzoyl)-3-[4-(5-oxo-4,5-dihydro-[1,2,4]oxadiazol-3-yl)-2-trifluoromethoxyphenyl]urea]
[1]
  % inhibition at 10 μM: 98%
other
  melting point: 230.1 °C

## O=C(NC(=O)c1ccc(F)cc1Cl)Nc1ccc(-c2noc(=O)[nH]2)cc1Cl [Example 11f, 1-(2-chloro-4-fluorobenzoyl)-3-[2-chloro-4-(5-oxo-4,5-dihydro-[1,2,4]oxadiazol-3-yl)phenyl]urea]
[1]
  % inhibition at 10 μM: 98%
other
  melting point: 243.6 °C

## O=C(NC(=O)c1cc(F)c(F)cc1Cl)Nc1ccccc1-c1ccc(C(=O)O)o1 [Example 13b, 5-{2-[3-(2-chloro-4,5-difluorobenzoyl)ureido]phenyl}furan-2-carboxylic acid]
[1]
  % inhibition at 10 μM: 100%
other
  melting point: 239.3 °C

## O=C(NC(=O)c1ccc(F)cc1Cl)Nc1ccccc1-c1ccc(C(=O)O)o1 [Example 13c, 5-{2-[3-(2-chloro-4-fluorobenzoyl)ureido]phenyl}furan-2-carboxylic acid]
[1]
  % inhibition at 10 μM: 100%
other
  melting point: 236.3 °C

## NC(=O)C1CCCN(c2ccc(F)cc2NC(=O)NC(=O)c2cc(F)c(F)cc2Cl)C1 (stereo not drawn) [Example 15c, 1-{2-[3-(2-chloro-4,5-difluorobenzoyl)ureido]-4-fluorophenyl}piperidine-3-carboxamide]
[1]
  % inhibition at 10 μM: 0.3%
other
  melting point: 216 °C

## O=C(NC(=O)c1cc(F)c(F)cc1Cl)Nc1cc(F)ccc1N1CCC(C(=O)O)CC1 [Example 16c, 1-{2-[3-(2-chloro-4,5-difluorobenzoyl)ureido]-4-fluorophenyl}piperidine-4-carboxylic acid]
other
  melting point: 221.7 °C

## O=C(NC(=O)c1cc(F)c(F)cc1Cl)Nc1cc(F)ccc1N1CCCC(C(=O)O)C1 (stereo not drawn) [Example 17]
[2]
  IC50 at 10 μM: 0.01 µM

## COC(=O)C1CCN(c2ccc(Cl)cc2NC(=O)NC(=O)c2cc(F)c(F)cc2Cl)CC1 [Example 29]
[2]
  IC50 at 10 μM: 0.01 µM

## O=C(NC(=O)c1cc(F)c(F)cc1Cl)Nc1cc(Cl)ccc1N1CCCC(C(=O)O)C1 (stereo not drawn) [Example 31]
[2]
  IC50 at 10 μM: 0.01 µM

## COC(=O)c1ccc(N2CCCC(C(=O)O)C2)c(NC(=O)NC(=O)c2ccc(F)cc2Cl)c1 (stereo not drawn) [Example 34]
[1]
  % inhibition at 10 μM: 3.2%

## CCOC(=O)C1CCCN(c2ccc(F)cc2NC(=O)NC(=O)c2cc(F)c(F)cc2Cl)C1 (stereo not drawn) [Example 35]
[1]
  % inhibition at 10 μM: 0.3%

## CCOC(=O)C1CCCN(c2ccc(F)cc2NC(=O)NC(=O)c2ccc(F)cc2Cl)C1 (stereo not drawn) [Example 36]
[1]
  % inhibition at 10 μM: 0.3%

## CCN(CC)C(=O)C1CCCN(c2ccc(F)cc2NC(=O)NC(=O)c2cc(F)c(F)cc2Cl)C1 (stereo not drawn) [Example 37]
[1]
  % inhibition at 10 μM: 3.9%

## CCN(CC)C(=O)C1CCCN(c2ccc(F)cc2NC(=O)NC(=O)c2ccc(F)cc2Cl)C1 (stereo not drawn) [Example 38]
[1]
  % inhibition at 10 μM: 4.6%

## COC(=O)C1CCN(c2ccc(F)cc2NC(=O)NC(=O)c2cc(F)c(F)cc2Cl)CC1 [Example 39]
[2]
  IC50 at 10 μM: 0.01 µM

## COC(=O)C1CCN(c2ccc(F)cc2NC(=O)NC(=O)c2ccc(F)cc2Cl)CC1 [Example 40]
[1]
  % inhibition at 10 μM: 4.6%

## O=C(NC(=O)c1ccc(F)cc1Cl)Nc1cc(C(F)(F)F)ccc1N1CCC(C(=O)O)CC1 [Example 43]
[1]; 10 µM
  % inhibition at 10 μM: 0.15%

## COC(=O)C1CCN(c2ccc(S(C)(=O)=O)cc2NC(=O)NC(=O)c2cc(F)c(F)cc2Cl)CC1 [Example 44]
[1]
  % inhibition at 10 μM: 0.05%

## COC(=O)C1CCN(c2ccc(S(C)(=O)=O)cc2NC(=O)NC(=O)c2ccc(F)cc2Cl)CC1 [Example 45]
[1]
  % inhibition at 10 μM: 0.8%
